Measurements taken from ChEMBL document CHEMBL1201861, “Genomics of Drug Sensitity in Cancer screening data, Wellcome Trust Sanger Institute”.

Key:
Experiment in all cases: cells
Type in all cases: functional, cell-based, Homo sapiens
SW756 = conditions: Homo sapiens, SW756;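 further: growth inhibition of human SW756 cells, read out with a cell viability assay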
Description: SANGER: Inhibition of human SW756 cell growth in a cell viability assay.

SW-620 = conditions: Homo sapiens, SW-620;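 further: growth inhibition of human SW-620 cells, measured by a cell viability assay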
Description: SANGER: Inhibition of human SW620 cell growth in a cell viability assay.

NCI-H522 = conditions: Homo sapiens, NCI-H522;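 further: cell viability assay measuring growth inhibition of human NCI-H522 cells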
Description: SANGER: Inhibition of human NCI-H522 cell growth in a cell viability assay.

NUGC-3 = conditions: Homo sapiens, NUGC-3;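 further: growth inhibition of human NUGC-3 cells, read out with a cell viability assay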
Description: SANGER: Inhibition of human NUGC-3 cell growth in a cell viability assay.

LN-405 = conditions: Homo sapiens, LN-405
Description: SANGER: Inhibition of human LN-405 cell growth in a cell viability assay.

SW1417 = conditions: Homo sapiens, SW1417;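 further: growth inhibition of human SW1417 cells, read out with a cell viability assay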
Description: SANGER: Inhibition of human SW1417 cell growth in a cell viability assay.

HCT-116 = conditions: Homo sapiens, HCT-116
Description: SANGER: Inhibition of human HCT-116 cell growth in a cell viability assay.

RERF-LC-MS = conditions: Homo sapiens, RERF-LC-MS;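 further: growth inhibition of human RERF-LC-MS cells, read out by a cell viability assay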
Description: SANGER: Inhibition of human RERF-LC-MS cell growth in a cell viability assay.

MIA PaCa-2 = conditions: Homo sapiens, MIA PaCa-2;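 further: growth inhibition of MIA PaCa-2 cells, read out with a cell viability assay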
Description: SANGER: Inhibition of human MIA-PaCa-2 cell growth in a cell viability assay.

SiHa = conditions: Homo sapiens, SiHa;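 further: Viability-based readout of growth inhibition in SiHa cells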
Description: SANGER: Inhibition of human SiHa cell growth in a cell viability assay.

CHL-1 = conditions: Homo sapiens, CHL-1;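 further: cell growth inhibition, read out with a cell viability assay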
Description: SANGER: Inhibition of human CHL-1 cell growth in a cell viability assay.

HuO-3N1 = conditions: Homo sapiens, HuO-3N1;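 further: cell viability readout used to measure how strongly compounds suppress proliferation of human HuO-3N1 cells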
Description: SANGER: Inhibition of human HuO-3N1 cell growth in a cell viability assay.

A549 = conditions: Homo sapiens, A549;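 further: growth inhibition of A549 cells, read out with a cell viability assay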
Description: SANGER: Inhibition of human A549 cell growth in a cell viability assay.

SW1783 = conditions: Homo sapiens, SW1783;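 further: cell growth inhibition measured with a viability assay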
Description: SANGER: Inhibition of human SW1783 cell growth in a cell viability assay.

KYSE-180 = conditions: Homo sapiens, KYSE-180;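 further: growth inhibition of KYSE-180 cells, read out with a cell viability assay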
Description: SANGER: Inhibition of human KYSE-180 cell growth in a cell viability assay.

EFO-21 = conditions: Homo sapiens, EFO-21;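 further: growth inhibition of EFO-21 cells measured with a viability assay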
Description: SANGER: Inhibition of human EFO-21 cell growth in a cell viability assay.

NCI-H661 = conditions: Homo sapiens, NCI-H661;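 further: cell viability assay read-out, IC50 being the concentration that inhibits growth of the cells by half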
Description: SANGER: Inhibition of human NCI-H661 cell growth in a cell viability assay.

HCC1937 = conditions: Homo sapiens, HCC1937;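 further: growth inhibition measured with a cell viability read-out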
Description: SANGER: Inhibition of human HCC1937 cell growth in a cell viability assay.

NCI-H2347 = conditions: Homo sapiens, NCI-H2347;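 further: growth inhibition of the cell line, read out with a cell viability assay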
Description: SANGER: Inhibition of human NCI-H2347 cell growth in a cell viability assay.

CAPAN-1 = conditions: Homo sapiens, CAPAN-1;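 further: growth suppression of CAPAN-1 cells, read out by a cell viability assay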
Description: SANGER: Inhibition of human CAPAN-1 cell growth in a cell viability assay.

CAMA-1 = conditions: Homo sapiens, CAMA-1;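 further: growth inhibition of CAMA-1 cells, read out with a cell viability assay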
Description: SANGER: Inhibition of human CAMA-1 cell growth in a cell viability assay.

PFSK-1 = conditions: Homo sapiens, PFSK-1;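 further: cell viability assay measuring how strongly compounds suppress growth of human PFSK-1 cells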
Description: SANGER: Inhibition of human PFSK-1 cell growth in a cell viability assay.

Hs-578T = conditions: Homo sapiens, Hs-578T
Description: SANGER: Inhibition of human Hs-578-T cell growth in a cell viability assay.

RPMI-7951 = conditions: Homo sapiens, RPMI-7951
Description: SANGER: Inhibition of human RPMI-7951 cell growth in a cell viability assay.

UO-31 = conditions: Homo sapiens, UO-31;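 further: cell viability assay measuring inhibition of cell growth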
Description: SANGER: Inhibition of human U031 cell growth in a cell viability assay.

A 172 = conditions: Homo sapiens, A 172;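 further: growth inhibition of A172 cells, measured with a cell viability readout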
Description: SANGER: Inhibition of human A172 cell growth in a cell viability assay.

NCI-H292 = conditions: Homo sapiens, NCI-H292;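 further: growth inhibition of NCI-H292 cells, read out with a cell viability assay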
Description: SANGER: Inhibition of human NCI-H292 cell growth in a cell viability assay.

RCM-1 = conditions: Homo sapiens, RCM-1;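 further: growth inhibition of the RCM-1 line, determined with a cell viability readout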
Description: SANGER: Inhibition of human RCM-1 cell growth in a cell viability assay.

SNU-449 = conditions: Homo sapiens, SNU-449
Description: SANGER: Inhibition of human SNU-449 cell growth in a cell viability assay.

MCF7 = conditions: Homo sapiens, MCF7;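 further: growth inhibition of human MCF7 cells, read out with a cell viability assay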
Description: SANGER: Inhibition of human MCF7 cell growth in a cell viability assay.

SCC-9 = conditions: Homo sapiens, SCC-9;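 further: Read-out is a cell viability assay, with values giving inhibition of cell growth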
Description: SANGER: Inhibition of human SCC-9 cell growth in a cell viability assay.

COR-L23 = conditions: Homo sapiens, COR-L23;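 further: cell viability assay measuring how strongly compounds suppress growth of COR-L23 cells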
Description: SANGER: Inhibition of human COR-L23 cell growth in a cell viability assay.

SNU-423 = conditions: Homo sapiens, SNU-423
Description: SANGER: Inhibition of human SNU-423 cell growth in a cell viability assay.

8505C = conditions: Homo sapiens, 8505C
Description: SANGER: Inhibition of human 8505C cell growth in a cell viability assay.

AN3-CA = conditions: Homo sapiens, AN3-CA;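 further: growth inhibition of human AN3-CA cells measured by a cell viability assay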
Description: SANGER: Inhibition of human AN3-CA cell growth in a cell viability assay.

C-33-A = conditions: Homo sapiens, C-33-A;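 further: cell viability assay measuring growth inhibition of C-33-A cells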
Description: SANGER: Inhibition of human C-33-A cell growth in a cell viability assay.

SW1573 = conditions: Homo sapiens, SW1573;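 further: growth inhibition of SW1573 cells, read out with a cell viability assay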
Description: SANGER: Inhibition of human SW1573 cell growth in a cell viability assay.

NCI-H520 = conditions: Homo sapiens, NCI-H520;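 further: growth inhibition of NCI-H520 cells, measured by a cell viability assay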
Description: SANGER: Inhibition of human NCI-H520 cell growth in a cell viability assay.

MKN-28 = conditions: Homo sapiens, MKN-28;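 further: cell viability assay read-out, IC50 reflects suppression of growth of human MKN-28 cells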
Description: SANGER: Inhibition of human MKN28 cell growth in a cell viability assay.

HEC-1 = conditions: Homo sapiens, HEC-1;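 further: growth inhibition of the cell line, read out with a cell viability assay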
Description: SANGER: Inhibition of human HEC-1 cell growth in a cell viability assay.

COLO-792 = conditions: Homo sapiens, COLO-792
Description: SANGER: Inhibition of human COLO-792 cell growth in a cell viability assay.

CC(C)c1ccccc1Cc1cc(C(=O)Nc2ccc(S(=O)(=O)c3ccccc3C(C)(C)C)cc2)c(O)c(O)c1O
IC50 (SW756): 112 nM
IC50 (SW-620): 961 nM
IC50 (NCI-H522): 2080 nM
IC50 (NUGC-3): 1150 nM
IC50 (LN-405): 1580 nM
IC50 (SW1417): 1910 nM
IC50 (HCT-116): 52.7 nM
IC50 (RERF-LC-MS): 35.2 nM
IC50 (MIA PaCa-2): 479 nM
IC50 (SiHa): 261 nM
IC50 (CHL-1): 11.9 nM
IC50 (HuO-3N1): 2030 nM
IC50 (A549): 14.1 nM
IC50 (SW1783): 213 nM
IC50 (KYSE-180): 185 nM
IC50 (EFO-21): 2600 nM
IC50 (NCI-H661): 202 nM
IC50 (HCC1937): 1640 nM
IC50 (NCI-H2347): 1220 nM
IC50 (CAPAN-1): 10.8 µM
IC50 (CAMA-1): 661 nM
IC50 (PFSK-1): 177 nM
IC50 (Hs-578T): 23.6 nM
IC50 (RPMI-7951): 888 nM
IC50 (UO-31): 184 nM
IC50 (A 172): 794 nM
IC50 (NCI-H292): 360 nM
IC50 (RCM-1): 3.39 µM
IC50 (SNU-449): 372 nM
IC50 (MCF7): 337 nM
IC50 (SCC-9): 957 nM
IC50 (COR-L23): 591 nM
IC50 (SNU-423): 325 nM
IC50 (8505C): 221 nM
IC50 (AN3-CA): 898 nM
IC50 (C-33-A): 109 nM
IC50 (SW1573): 240 nM
IC50 (NCI-H520): 606 nM
IC50 (MKN-28): 1130 nM
IC50 (HEC-1): 81.4 nM
IC50 (COLO-792): 247 nM

COc1cc2c(Nc3ccc(NC(=O)c4ccccc4)cc3)ncnc2cc1OCCCN1CCOCC1
IC50 (SW756): > 4000 nM
IC50 (SW-620): > 4000 nM
IC50 (NCI-H522): > 4000 nM
IC50 (NUGC-3): 3850 nM
IC50 (LN-405): > 4000 nM
IC50 (SW1417): > 4000 nM
IC50 (HCT-116): 1810 nM
IC50 (RERF-LC-MS): > 4000 nM
IC50 (MIA PaCa-2): 3910 nM
IC50 (SiHa): > 4000 nM
IC50 (CHL-1): 3420 nM
IC50 (HuO-3N1): > 4000 nM
IC50 (A549): 2640 nM
IC50 (SW1783): > 4000 nM
IC50 (KYSE-180): > 4000 nM
IC50 (EFO-21): 3110 nM
IC50 (NCI-H661): 2990 nM
IC50 (HCC1937): > 4000 nM
IC50 (NCI-H2347): > 4000 nM
IC50 (CAPAN-1): > 4 µM
IC50 (CAMA-1): > 4000 nM
IC50 (PFSK-1): > 4000 nM
IC50 (Hs-578T): > 4000 nM
IC50 (RPMI-7951): > 4000 nM
IC50 (UO-31): > 4000 nM
IC50 (A 172): 984 nM
IC50 (NCI-H292): 1700 nM
IC50 (RCM-1): > 4 µM
IC50 (SNU-449): > 4000 nM
IC50 (MCF7): > 4000 nM
IC50 (SCC-9): > 4000 nM
IC50 (COR-L23): > 4000 nM
IC50 (SNU-423): > 4000 nM
IC50 (8505C): > 4000 nM
IC50 (AN3-CA): > 4000 nM
IC50 (C-33-A): > 4000 nM
IC50 (SW1573): > 4000 nM
IC50 (NCI-H520): > 4000 nM
IC50 (MKN-28): > 4000 nM
IC50 (HEC-1): > 4000 nM
IC50 (COLO-792): > 4000 nM
